The assay relates to NK cells. Description: Feeder-free culture of CD3/CD19 depleted PBMC with IL-15 and GSK3 inhibitor: NK cell expansion and phenotype. The class given is cell-based, human. As for the experimental part:
NK Cell Isolation. Healthy adult donor blood was obtained from commercial sources or from GCRC core laboratory of Scripps Research Institute, La Jolla, CA Peripheral blood mononuclear cells (PBMC) were isolated by density gradient centrifugation using Ficoll-Paque PLUS (GE Healthcare: Life Sciences) and then depleted of B and T cells without culturing the PBMC using CD19 Microbeads (Miltenyi Biotec, #130-050-301) and CD3 Microbeads (Miltenyi Biotec, #130-050-101) within 24 to 36 hours according to manufacturer directions.
NK cell culture: CD3/CD19 depleted PBMC (0.5-1×10E6/mL) were cultured in BO medium (2:1 mixture of DMEM, (Corning Cell-Gro #10-017-CV) and Ham's F12 (Corning Cell-Gro #10-080-C) with 10% human AB serum (Valley Biomedical, #HP1022), 100 U/mL penicillin and 100 ug/mL streptomycin (Corning, 30-002-CI), 20 uM 2-mercaptoethanol (Sigma, M3148), 50 uM ethanolamine (Sigma, E0135), 10 ug/mL ascorbic acid (Sigma, A4544), and 1.6 ng/mL sodium selenite (Sigma, S5261). Cells were cultured for 7-8 days (up to four weeks) in medium containing 10 ng/mL recombinant human IL-15 (Life Technologies, PHC9154) with or without GSK3 inhibitor CHIR99021 (BioVision #1677-5), histone lysine methyltransferase inhibitor BIX 01294 (Tocris, 3364), TGF-β1 receptor inhibitor SB-431542 (BioVison, 1674-5), or human interferon alpha (R&D Systems, 11200-1). After culturing, cells were counted using trypan blue or by Cellometer (Nexcelom) and used for flow cytometry and functional assays. Flow cytometry was performed on a BD LSRFortessa and results were analyzed by FlowJo software. Commercially available antibodies to the following surface markers were used for flow cytometry: CD3, CD14, CD16, CD19, CD56, CD57 and NKG2C (BD Biosciences, Biolegend, or R&D Systems). Where indicated, K562 feeder cells were used. Where indicated other modulators and culture reagents were added.
One aspect of the present invention is to provide a method and a system to culture, expand and/or modulate NK cells for adoptive cell therapy. In some embodiments, the method and system for culturing, expanding and/or modulating NK cells is without the use of feeder cells, or feeder cell conditioned medium. Peripheral blood mononuclear cells (PBMC) were isolated from healthy adult donors. The isolated apheresis product (Day 0, pre-depletion; FIG. 2A) was T and B cell depleted using anti-CD19 and CD3 antibodies without pre-depletion culturing (Day 0, post-depletion; FIG. 2B). The post-depletion cell population was then cultured in a feeder free condition with the presence of recombinant human IL-15 (10 ng/mL) and 5 μM CHIR99021, a GSK3 inhibitor, for about 3 to 7 days.

[1] abbreviates: 7 day culture with GSK3 inhibitor vs cultured without GSK3i.
The mark [2] stands for this setting: Day 7 GSK3i culture vs overnight primed.

On to `Cc1c[nH]c(-c2cnc(NCCNc3ccc(C#N)cn3)nc2-c2ccc(Cl)cc2Cl)n1` [CHIR99021], for which the “percentage of CD57+ cells in the total NK populations” value (7 day culture with GSK3i vs 7 day without GSK3i) is reported as “increased”. Further, under setting [1], the “CD57+ NK cell number, increase on average” value is listed as 7-8 fold and the “CD57+NKG2C+ NK cell number, increase on average” value is reported as 7-8 fold. The “NK cell (CD56+CD3−) percentage in population” value (Day 7, IL-15 10 ng/mL + 5 μM CHIR99021, feeder free, about 20% post-depletion Day 0) is listed as “about 99%”. Moreover, the “remaining T cells (CD56-CD3+) percentage in population” value (Day 7, IL-15 10 ng/mL + 5 μM CHIR99021, about 1% post-depletion) is on record as 0.25%. For the same molecule, under setting [2], the “cell number of CD57+ NK subset, increase on average” value is 5-6 fold and the “cell number of CD57+NKG2C+ NK subset, increase on average” value was 5-6 fold. In addition, for the setting “short term treatment, 16 hours, comparable to vehicle”, the “frequency of CD57+ cells in the culture” value is given as “did not generate a higher frequency”.

Source of the values: US12281329B2, “Compositions and methods for immune cell modulation in adoptive immunotherapies” (Fate Therapeutics, Inc., priority 2016, dated 2025).
